Assay results from patent US20220089663A1, “PROTEINS AND FLUOROPHORE-CONTAINING COMPOUNDS SELECTIVE FOR NaV1.7” (MEMORIAL SLOAN KETTERING CANCER CENTER, priority 2019, published 2022).

Assays:
hNav1.7 = target: T1, hNav1.7 (Homo sapiens, UniProt Q15858); test: automated whole-cell patch clamp (QPatch 16X), HEK293-hNav1.7; type: cell-based
T1 construct: host or cells: HEK293

CVH mice = test: visceromotor response (VMR) to colorectal distension in chronic visceral hypersensitivity (CVH) mice; type: in vivo, mouse; details: intra-colonic 200 nM
Procedure: Model of Chronic Visceral Hypersensitivity (CVH). All experiments were performed in accordance with the guidelines of the Animal Ethics Committees of the South Australian Health and Medical Research Institute (SAHMRI) and Flinders University. Male C57 BL/6 mice were used in all experiments.
Colitis was induced by administration of Trinitrobenzene Sulphonic acid (TNBS) as described previously (Castro et al., Gut 66(6):1083-1094 (2017); Osteen et al., Nature 534: 494-499 (2016)). Briefly, 13-week-old mice were fasted overnight with access to 5% glucose solution. After the fasting period, isofluorane anaesthetized mice were administered an intracolonic enema of 0.1 mL TNBS ([…] in 30% EtOH) via a polyethylene catheter inserted 3 cm past the anus. […]
In vivo Visceromotor Responses (VMR) to Colorectal Distension (CRD). […] The EMG electrodes were relayed to a data acquisition system and the signal was recorded (NL100AK headstage), amplified (NL104), filtered (NL 125/126, Neurolog, Digitimer Ltd, bandpass 50-5000 Hz) and digitized (CED 1401, Cambridge Electronic Design, Cambridge, UK) to a PC for off-line analysis using Spike2 (Cambridge Electronic Design). […] To quantify the magnitude of the VMR at each distension pressure, the area under the curve (AUC) during the distension (20 s) was corrected for the baseline activity (AUC pre-distension, 20 s).

T1 sequence (Q15858 whole entry): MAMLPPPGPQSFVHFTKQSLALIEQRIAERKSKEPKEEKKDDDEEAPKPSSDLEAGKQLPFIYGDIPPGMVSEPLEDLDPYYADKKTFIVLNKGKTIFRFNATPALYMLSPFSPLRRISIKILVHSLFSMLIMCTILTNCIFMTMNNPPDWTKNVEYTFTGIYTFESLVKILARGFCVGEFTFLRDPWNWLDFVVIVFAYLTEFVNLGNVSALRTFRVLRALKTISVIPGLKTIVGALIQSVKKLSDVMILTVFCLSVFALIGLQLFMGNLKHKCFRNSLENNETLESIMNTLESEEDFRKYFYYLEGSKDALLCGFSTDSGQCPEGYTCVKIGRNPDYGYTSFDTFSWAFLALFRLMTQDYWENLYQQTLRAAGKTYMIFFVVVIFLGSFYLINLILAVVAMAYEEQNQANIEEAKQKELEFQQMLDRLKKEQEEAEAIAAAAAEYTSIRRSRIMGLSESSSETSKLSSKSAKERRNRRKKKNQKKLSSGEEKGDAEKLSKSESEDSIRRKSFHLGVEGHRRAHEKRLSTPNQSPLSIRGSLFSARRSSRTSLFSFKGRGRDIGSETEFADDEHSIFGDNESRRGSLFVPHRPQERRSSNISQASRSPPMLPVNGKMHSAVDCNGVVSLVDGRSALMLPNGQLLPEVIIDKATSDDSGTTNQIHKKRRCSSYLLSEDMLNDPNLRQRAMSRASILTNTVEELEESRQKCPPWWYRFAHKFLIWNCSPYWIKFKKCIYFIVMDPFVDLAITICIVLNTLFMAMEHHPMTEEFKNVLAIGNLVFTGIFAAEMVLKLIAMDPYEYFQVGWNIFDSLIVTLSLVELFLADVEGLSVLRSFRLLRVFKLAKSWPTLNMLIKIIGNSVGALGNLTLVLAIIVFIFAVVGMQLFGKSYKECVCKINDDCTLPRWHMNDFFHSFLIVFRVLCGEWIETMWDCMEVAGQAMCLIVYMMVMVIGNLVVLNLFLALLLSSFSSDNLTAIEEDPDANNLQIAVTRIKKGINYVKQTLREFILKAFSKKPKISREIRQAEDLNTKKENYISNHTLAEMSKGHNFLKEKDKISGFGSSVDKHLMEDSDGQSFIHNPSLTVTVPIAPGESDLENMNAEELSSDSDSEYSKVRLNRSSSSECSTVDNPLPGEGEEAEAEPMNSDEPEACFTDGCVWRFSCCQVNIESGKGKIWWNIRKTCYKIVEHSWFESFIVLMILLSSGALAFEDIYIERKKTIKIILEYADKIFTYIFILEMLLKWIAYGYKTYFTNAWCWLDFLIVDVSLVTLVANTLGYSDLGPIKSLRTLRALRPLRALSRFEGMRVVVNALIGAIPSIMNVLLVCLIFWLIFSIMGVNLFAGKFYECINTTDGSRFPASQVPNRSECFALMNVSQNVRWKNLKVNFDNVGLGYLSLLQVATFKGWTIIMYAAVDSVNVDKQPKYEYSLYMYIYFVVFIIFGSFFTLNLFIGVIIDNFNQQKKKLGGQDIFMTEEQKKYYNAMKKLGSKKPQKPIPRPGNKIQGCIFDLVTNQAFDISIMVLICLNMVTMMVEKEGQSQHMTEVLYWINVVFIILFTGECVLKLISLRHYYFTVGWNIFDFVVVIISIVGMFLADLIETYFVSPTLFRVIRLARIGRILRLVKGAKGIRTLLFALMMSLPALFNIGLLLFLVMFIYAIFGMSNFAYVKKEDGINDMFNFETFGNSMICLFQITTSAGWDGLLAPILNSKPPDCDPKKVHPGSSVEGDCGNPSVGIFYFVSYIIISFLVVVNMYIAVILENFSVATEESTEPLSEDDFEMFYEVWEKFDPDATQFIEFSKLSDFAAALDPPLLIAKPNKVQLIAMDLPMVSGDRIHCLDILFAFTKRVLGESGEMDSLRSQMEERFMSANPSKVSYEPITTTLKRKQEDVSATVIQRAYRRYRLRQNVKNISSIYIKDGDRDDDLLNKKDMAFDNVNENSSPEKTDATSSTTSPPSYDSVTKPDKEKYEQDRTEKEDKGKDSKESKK
T1 sequence (Q07699 19-218, further chain): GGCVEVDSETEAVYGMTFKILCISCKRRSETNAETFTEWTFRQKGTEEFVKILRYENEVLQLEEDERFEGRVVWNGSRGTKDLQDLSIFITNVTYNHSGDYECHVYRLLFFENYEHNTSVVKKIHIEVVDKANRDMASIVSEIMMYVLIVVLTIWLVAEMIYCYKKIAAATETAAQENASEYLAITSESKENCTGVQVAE

CC[C@H](C)[C@H](NC(=O)[C@H](CCCCN)NC(=O)[C@@H]1CSSC[C@@H]2NC(=O)[C@@H]3CCCN3C(=O)[C@H](CCCNC(=N)N)NC(=O)[C@H](CCC(=O)O)NC(=O)[C@H](CO)NC(=O)[C@H](CC(=O)O)NC(=O)[C@@H]3CSSC[C@H](NC(=O)[C@H](C(C)C)NC(=O)[C@H](CC(C)C)NC(=O)CNC(=O)[C@H](CCC(=O)O)NC(=O)[C@H](CSSC[C@H](NC(=O)[C@@H](N)Cc4ccc(O)cc4)C(=O)N[C@@H](CCC(N)=O)C(=O)N[C@@H](CCCCN)C(=O)N[C@@H](Cc4ccccc4)C(=O)N[C@@H](CC(C)C)C(=O)N[C@@H](Cc4c[nH]c5ccccc45)C(=O)N[C@@H]([C@@H](C)O)C(=O)N3)NC2=O)C(=O)N[C@@H](CCCNC(=N)N)C(=O)N[C@@H](CC(C)C)C(=O)N[C@@H](Cc2c[nH]c3ccccc23)C(=O)N1)C(=O)N[C@@H](CC(N)=O)C(N)=O [sHsp1a]
hNav1.7 currents blocked (hNav1.7; at 200 nM): 70% | inhibition at 2 µM (hNav1.7; at 2 μM, read-out: current inhibition hNav1.7): 75% | IC50 (hNav1.7; mean±S.E.M, read-out: pIC50 on hNav1.7 (converted)): 10.5 nM | VMR to colorectal distension compared to CVH vehicle treated animals (CVH mice): significantly reduced the VMR
